Entries after “also recorded” stand apart in the source; their conditions may differ.
How the values were obtained:
[1] = Bioavailability / pharmacokinetics in beagle dogs after single oral dose; type: in vivo
Experimental: Additionally, preparations containing crystalline compound of formula I (Examples IIIB and IIIC) and amorphous compound of formula I (Example IIA) were evaluated for bioavailability in beagle dogs with body weight of approximately 10 kg. Each dog was given a formulation containing 90 mg of compound of formula I. Blood samples were collected from each dog prior to dosing (0 h) and at 0.5, 1, 2, 4, 6, 8, 12, 24, 36 and 48 hours after dosing. EDTA was used as an anticoagulant. Each plasma sample was separated after cold centrifugation and frozen in an amber vial at a minimum of −60° C. before analysis. Compound of formula I was extracted from plasma and the plasma concentration of compound of formula I was determined using a positive ion TurbolonSpray LC-MS/MS assay[HPLC using HP1100 LC system, Hewleft-Packard, Inc. (Agilent Technologies, Wilmington, Del.) and Mass Spectrometer using PE-Sciex API-3+ (Perkin-Elmer Instruments, Wilton, Conn.), Ionization mode: Turbulonspray, 500C, positive ion] The calibration range was 1 to 1,000 ng/mL using a 100-μL plasma sample. […]

[2] = Two-stage dissolution method (water, then 6% SLS in phosphate buffer pH 6.8); type: physicochemical; details: FIG. 6 dissolution profile, Example IIA versus Example IIIA
Experimental: The formulation of Example IIIA containing crystalline compound of formula I (Example IIIA) and the formulation of (Example IIA) containing amorphous compound of formula I were evaluated for dissolution by a two-stage (two dissolution media) dissolution method. At Stage I, 300 mL of deionized water at 37°±0.5° C. using paddles at 75 rpm was used. At Stage II, 600 mL of 6% w/v Sodium Lauryl Sulfate in 0.015M Phosphate Buffer, pH 6.8 equilibrated at 37°±0.5° C., was carefully added into the dissolution vessel 25 minutes after the Stage I dissolution was initiated. Sample aliquots were taken at different time intervals and analyzed by UV spectrophotometry.

[3] = Stability of the amorphous form under accelerated storage (powder X-ray diffraction); type: physicochemical; details: 40° C./75% RH, closed glass vial for 6 months, independent of form stabilizers; FIG. 5
[4] = physchem; details: aqueous media at physiological pHs, aqueous buffer
Description: A crystalline form of the compound of formula I is known. See, e.g., U.S. Pat. No. Re. 36,736. […] (Id. column 22, lines 5-6). […] See, e.g. U.S. Pat. No. 6,048,887 and EP 0 988,863.

| bioavailability as compared to the crystalline form ([1]; amorphous versus crystalline form) | solubility versus crystalline form [2] | solubility [4] [µg/mL] | bioavailability ([1]; dog, in vivo, in dogs, previously known crystalline form (background statement)) [%] | SMILES | retention of amorphous form on storage [3] |
| --- | --- | --- | --- | --- | --- |
| approximately 15 fold | much more soluble |  |  | Cn1cc(C2=C(c3cn(C)c4cc([N+](=O)[O-])ccc34)C(=O)NC2=O)c2ccccc21 [amorphous compound of formula I, 3-(1-methyl-3-indolyl)-4-(1-methyl-6-nitro-3-indolyl)-1H-pyrrole-2,5,-dione] | maintained its amorphous properties; also recorded: remained in its amorphous form |
|  |  | < 10 | < 5 | Cn1cc(C2=C(c3cn(C)c4cc([N+](=O)[O-])ccc34)C(=O)NC2=O)c2ccccc21 [crystalline compound of formula I, 3-(1-methyl-3-indolyl)-4-(1-methyl-6-nitro-3-indolyl)-1H-pyrrole-2,5,-dione, reference compound] |  |
